Laboratory results from patent publication US11472830B2, “Cyclic dinucleotides as sting agonists” (Janssen Biotech, Inc., priority 2016, dated 2022).

Assays:
[1] = system: human STING pathway in THP1-ISG cells; test: STING human cell reporter assay; format: cell-based; conditions: 24 h, mean of at least three values
Experimental: STING Human Cell Reporter Assay
Agonism of the human STING pathway is assessed in THP1-ISG cells (Invivogen, cat #thp-isg) derived from human THP1 monocyte cell line by stable integration of an interferon regulatory factor (IRF)-inducible SEAP reporter construct. THP1-Blue ISG cells express a secreted embryonic alkaline phosphatase (SEAP) reporter gene under the control of an ISG54 minimal promoter in conjunction with five interferon (IFN)-stimulated response elements. As a result, THP1-Blue ISG cells allow the monitoring of IRF activation by determining the activity of SEAP. The levels of IRF-induced SEAP in the cell culture supernatant are readily assessed with alkaline phosphatase detection medium, a SEAP detection reagent. These cells are resistant to Zeocin. […] To run the assay, 60,000 cells were dispensed in 30 μL/well of a white, opaque bottom tissue culture treated 384-well plate.
Test compounds were added in a volume of 10 μL (1% DMSO final concentration). Compounds are initially prepared in 100% DMSO, spotted on an intermediate dilution plate and then diluted in media prior to transfer. The assay was incubated for 24 h at 37 °C, 5% CO2 then plates were centrifuged at 1200 rpm (120× g) for 5 min. After final incubation, 90 μL of alkaline phosphatase detection medium-substrate was added to each well of a new 384-well clear plate and 10 μL of the cell supernatant was transferred from the assay plate to the new alkaline phosphatase detection medium-plate using a Biomek FX and mixed 4 times.

[2] = system: IFN-β secretion in THP1-Blue ISG cells; test: Human interferon-β induction assay; format: cell-based; conditions: total cumulative IFN-β induction over the dose range tested (0.78 to 50 uM) in THP-1 cells
Experimental: Human Interferon-β Induction Assay
THP1-Blue ISG cells are used to measure the secretion of IFN-β into the culture supernatant following STING pathway activation. To run the assay, anti-IFN-β capture antibodies were coated on 96 well MultiArray plates (Mesoscale Discovery). After a one hour incubation, plates were washed and 50 μL supernatant from the STING human cell reporter assay plates or IFN-β standards were mixed with 20 μL Sulfotag-conjugated detection antibody in the coated plates. Plates were incubated, shaking for 2 h, washed, and read buffer was applied. Electrochemiluminescence was measured on the Sectorlmager.

[3] = system: CT26 colon carcinoma tumor; test: STING in vivo activity, mouse CT26 tumor model; conditions: CT26 tumor in Balb/c mice, 0.05 mg intratumorally every three days, three doses; for In vivo activity (cures): animals with no measurable tumor of 8
Experimental: For all studies, female Balb/c mice were obtained from Charles River Labs (Wilmington, Mass.) and used when they were 6-8 weeks of age and weighed approximately 20 g. All animals were allowed to acclimate and recover from any shipping-related stress for a minimum of 5 days prior to experimental use. Reverse osmosis chlorinated water and irradiated food (Laboratory Autoclavable Rodent Diet 5010, Lab Diet) were provided ad libitum, and the animals were maintained on a 12 h light and dark cycle. Cages and bedding were autoclaved before use and changed weekly. All experiments were carried out in accordance with The Guide for the Care and Use of Laboratory Animals and were approved by the Institutional Animal Care and Use Committee of Janssen R & D, Spring House, Pa. Each experimental group contained 8 mice. In vivo efficacy in a mouse CT26 tumor model was determined by implanting 500,000 CT26 colon carcinoma tumor cells subcutaneously into Balb/c mice and allowing tumors to establish to 100-300 mm^3. Compounds were injected intratumorally formulated in phosphate buffered saline in a volume of 0.1 ml per injection. Mice were administered 0.05 mg every three days for a total of three doses. Efficacy was measured as the percent tumor growth inhibition (TGI) calculated by the reduction in size of the Treated tumor volume (T) over the Control tumor volume (C) according to the following formula: ((C−T)/(C))*100 when all control animals were still on study. Cures were defined as the number of animals with no measurable tumor detected 10 tumor volume doubling times (TVDT) after the last dose was administered.

HBV infected PHH cells = test: Suppression of HBV virus in PHH cells using conditioned media from STING activated primary human PBMC; format: cell-based, hepatitis B virus; conditions: conditioned media from PBMCs stimulated at 20, 4, 0.8 μM for 48 h, 1:1 on HBV infected PHH cells; HBsAg 8 days later; two donors; read-out: EC50 (HBsAg production)
Source text: Suppression of HBV Virus in PHH Cells Using Conditioned Media from STING Activated Primary Human PBMC
Primary human hepatocytes can be infected with hepatitis B virus and during an established infection, will produce viral proteins such as HBsAg and HBeAg that can be detected by ELISA. Therapeutic treatment with compounds such as entecavir can suppress HBV reproduction, which can be measured by decreased viral protein production. (# of cells) 4×10^5 cells/well primary human hepatocytes (BioReclamation, Westbury, N.Y.) were dispensed into 500 μL/well of flat-bottom, tissue culture treated, 24-well plates. 24 h later, cells were infected with 30-75 moi of HBV. On the next day, the PHH were washed 3× and fresh maintenance media was added to the cells. Concurrently, PBMC were isolated as described previously. To stimulate the PBMC, 10,000,000 cells were dispensed into 400 μL/well of flat-bottom, tissue culture treated, 24-well plates. […] Cells were measured for activation marker upregulation using flow cytometery. […] Samples were analyzed on an Attune NxT flow cytometer (Thermo Fisher, Carlsbad, Calif.)
From the stimulated PBMC cultures, a portion of supernatant was reserved for cytokine detection by Luminex, as described previously. […] Following 96 h, the media was collected and HBsAg was measured.

STING = STING (Homo sapiens, UniProt Q86WV6, H232R); test: STING SPA binding assay; conditions: displacement of [3H]-2′3′-cGAMP; mean of at least three values; read-out: hSTING SPA IC50
Sequence of STING (Q86WV6 139-379 H232R): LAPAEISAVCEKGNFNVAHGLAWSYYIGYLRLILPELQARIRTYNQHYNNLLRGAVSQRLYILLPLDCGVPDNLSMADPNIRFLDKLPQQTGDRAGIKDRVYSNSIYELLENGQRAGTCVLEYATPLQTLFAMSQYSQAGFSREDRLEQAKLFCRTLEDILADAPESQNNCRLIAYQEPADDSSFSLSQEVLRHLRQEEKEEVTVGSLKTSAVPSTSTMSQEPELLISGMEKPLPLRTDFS
Experimental: The HIS tag is cleaved after purification and prior to biotinylation.
Test compounds (80 nL) were added with an acoustic dispenser (EDC Biosystems) in 100% DMSO for a final assay concentration of 1% DMSO. Plates were centrifuged for 1 min and incubated for 60 min at room temperature. Finally, (2 μL) polystyrene streptavidin SPA beads (PerkinElmer RPNQ0306) were added and plates were sealed and centrifuged for 1 min at room temperature. Plates were dark adapted for 2 h and read on a ViewLux (Perkin Elmer) for 12 min per plate.

EC50 [1] [nM]	EC50 (HBV infected PHH cells) [nM]	IC50 (STING) [nM]	SMILES	human IFN-β (ranking value) [2]	In vivo activity (% TGI) [3] [%]	In vivo activity (cures) [3]
90			Nc1nc2c(ncn2C2OC3CO[P@@](=O)(S)OC4C(CO[P@@](=O)(S)OC2C3O)OC(n2cnc3c(N)ncnc32)C4F)c(=O)[nH]1 (single isomer, unassigned) [Compound 4]	2247	93.7	6/8
160			Nc1nc2c(ncn2C2OC3CO[P@](=O)(S)OC4C(CO[P@](=O)(S)OC2C3O)OC(n2cnc3c(N)ncnc32)C4F)c(=O)[nH]1 (single isomer, unassigned) [Compound 5]	2737	93.3	7/8
1120	0.0851		B[P@]1(=O)OCC2OC(n3cnc4c(=O)[nH]c(N)nc43)C(O[P@@](B)(=O)OCC3OC(n4cnc5c(N)ncnc54)C(O)C3O1)C2O (single isomer, unassigned) [Compound 7]	2260	94.3	5/8
110			B[P@@]1(=O)OCC2OC(n3cnc4c(=O)[nH]c(N)nc43)C(O[P@](B)(=O)OCC3OC(n4cnc5c(N)ncnc54)C(O)C3O1)C2O (single isomer, unassigned) [Compound 8]	2054	95.3	4/8
640			B[P@@]1(=O)OCC2OC(n3cnc4c(=O)[nH]c(N)nc43)C(O[P@](=O)(S)OCC3OC(n4cnc5c(N)ncnc54)C(F)C3O1)C2OC (single isomer, unassigned) [Compound 9]	2240	89.8	
540			B[P@]1(=O)OCC2OC(n3cnc4c(=O)[nH]c(N)nc43)C(O[P@](=O)(S)OCC3OC(n4cnc5c(N)ncnc54)C(F)C3O1)C2OC (single isomer, unassigned) [Compound 10]	1321		
490		< 10	B[P@@]1(=O)OCC2OC(n3cnc4c(=O)[nH]c(N)nc43)C(O[P@](B)(=O)OCC3OC(n4cnc5c(N)ncnc54)C(F)C3O1)C2OC (single isomer, unassigned) [Compound 11]	3840		
220		< 10	B[P@]1(=O)OCC2OC(n3cnc4c(=O)[nH]c(N)nc43)C(O[P@@](B)(=O)OCC3OC(n4cnc5c(N)ncnc54)C(F)C3O1)C2OC (single isomer, unassigned) [Compound 12]	3860		
590			B[P@@]1(=O)OCC2OC(n3cnc4c(N)ncnc43)C(F)C2O[P@](=O)(S)OCC2OC(n3cnc4c(=O)[nH]c(N)nc43)C(O1)C2OC (single isomer, unassigned) [Compound 13]	2900		
450			B[P@]1(=O)OCC2OC(n3cnc4c(N)ncnc43)C(F)C2O[P@@](=O)(S)OCC2OC(n3cnc4c(=O)[nH]c(N)nc43)C(O1)C2OC (single isomer, unassigned) [Compound 14]	4964		
120			Nc1nc2c(ncn2C2OC3COP(=O)(O)OC4C5OCC4(COP(=O)(O)OC2C3O)OC5n2cnc3c(N)ncnc32)c(=O)[nH]1 (stereo not drawn) [Compound 6]	27	73.9	1/8
